Legend:
[1] = test system: A2AR single and double Cys-to-Ala variants; assay: Fluorescent-ligand binding to the A2AR variants; parameters: species or system human; conditions: HEK-293 cells, untagged A2AR constructs, 70 nM FITC-APEC, 1 h at 37 °C
A2a–adenosine receptors = conditions: high affinity fluorescent agonist; cited from earlier work

CCNC(=O)[C@H]1O[C@@H](n2cnc3c(N)nc(NCCc4ccc(CCC(=O)NCCNC(=S)Nc5ccc6c(c5)C(=O)OC6(c5ccc(O)cc5)c5ccc(O)cc5)cc4)nc32)[C@H](O)[C@@H]1O [FITC-APEC, 2-[2-[4-[2-[2-[1,3-Dihydro-1,1-bis (4-hydroxyphenyl)-3-oxo-5-isobenzofuranthioureidyl]ethylaminocarbonyl]ethyl]phenyl]ethylamino]-5N′-ethylcarboxamidoadenosine]
fluorescent ligand binding at the cell surface [1]: capable of binding | Kd (A2a–adenosine receptors): 57 nM

Source: PMC4565196 (Biochimica et biophysica acta, 2014)
